Measured values: US3991187A, “Medicinal compositions and methods of use involving phosphoric acid esters” (Aktiebolaget Leo, priority 1971, dated 1976)

tested on: prostaglandins E1, E2 F1α and F2α; assay: PG-inhibitory effect on the isolated gerbil colon; type: cell-based, Gerbils (Meriones unguiculatus); settings: gerbil colon
Description: The PG-inhibitory effect of esters of the present invention on the gerbil colon are determined using the general technique described by Eakins, Miller & Karim (J. Pharm. Exp. Ther. 176:441, 1971). Gerbils (Meriones unguiculatus) of own breed, both sexes, weighing 50-80 g are used. The animal is stunned, colon ascendens immediately removed, and a 2-3 cm piece mounted in a 6 ml bath containing a modified de Jalon solution at 28° C and continuously oxygenated. Contractions of the organ are registered either isotonically or isometrically. When testing the inhibitory effect of a compound this is added to the bath 2 min before the addition of prostaglandin. […] Several concentrations of each antagonist are used.

Row | Compound | selective inhibitory effects compared with PPP
1 | Nc1ccccc1C(=O)CCc1cccc(OP(=O)([O-])Oc2cccc(CCC(=O)c3ccccc3N)c2)c1.[Na+] [sodium bis(3-(3-(2-aminophenyl)-3-oxopropyl)phenyl) phosphate] | equal to or superior to that of PPP
2 | O=C(CCc1cccc(OP(=O)([O-])Oc2cccc(CCC(=O)c3ccccc3O)c2)c1)c1ccccc1O.[Na+] [sodium bis(3-(3-(2-hydroxyphenyl)-3-oxopropyl)phenyl) phosphate] | equal to or superior to that of PPP
3 | COc1ccc(CCC(=O)c2cccc(OP(=O)([O-])Oc3cccc(C(=O)CCc4ccc(OC)c(CN(C)C)c4)c3)c2)cc1CN(C)C.[Na+] [sodium bis(3-(3-(3-dimethylaminomethyl-4-methoxyphenyl)propionyl)phenyl) phosphate] | equal to or superior to that of PPP
4 | CN(C)C(=O)Cc1ccc(C(=O)CCc2cccc(OP(=O)([O-])Oc3cccc(CCC(=O)c4ccc(CC(=O)N(C)C)cc4)c3)c2)cc1.[Na+] [sodium bis(3-(3-(4-(N,N-dimethylcarbamoylmethyl)phenyl)-3-oxopropyl)phenyl)phosphate] | equal to or superior to that of PPP
5 | CCN(CC)c1ccc(CCC(=O)c2cccc(OP(=O)([O-])Oc3cccc(C(=O)CCc4ccc(N(CC)CC)cc4)c3)c2)cc1.[Na+] [sodium bis(3-(3-(4-diethylaminophenyl)propionyl)phenyl) phosphate] | equal to or superior to that of PPP
6 | COc1cc(CCC(=O)c2cccc(OP(=O)([O-])Oc3cccc(C(=O)CCc4ccc(O)c(OC)c4)c3)c2)ccc1O.[Na+] [sodium bis(3-(3-(4-hydroxy-3-methoxyphenyl)propionyl)phenyl) phosphate] | equal to or superior to that of PPP
7 | COC(=O)Cc1ccc(C(=O)CCc2cccc(OP(=O)([O-])Oc3cccc(CCC(=O)c4ccc(CC(=O)OC)cc4)c3)c2)cc1.[Na+] [sodium bis(3-(3-(4-methoxycarbonylmethylphenyl)-3-oxo-propyl)phenyl) phosphate] | equal to or superior to that of PPP
8 | Nc1ccccc1C(=O)CCc1ccc(OP(=O)([O-])Oc2ccc(CCC(=O)c3ccccc3N)cc2)cc1.[Na+] [sodium bis(4-(3-(2-aminophenyl)-3-oxopropyl)phenyl) phosphate] | equal to or superior to that of PPP
9 | Nc1ccc(C(=O)CCc2ccc(OP(=O)(O)Oc3ccc(CCC(=O)c4ccc(N)cc4)cc3)cc2)cc1 [sodium bis(4-(3-(4-aminophenyl)-3-oxopropy)phenyl) phosphate] | equal to or superior to that of PPP
10 | COc1cc(OP(=O)([O-])Oc2ccc(C(=O)CCc3ccc(N)cc3)c(OC)c2)ccc1C(=O)CCc1ccc(N)cc1.[Na+] [sodium bis(4-(3-(4-aminophenyl)propionyl)-3-methoxyphenyl) phosphate] | equal to or superior to that of PPP
11 | CCN(CC)c1ccc(C=C(C(=O)c2ccc(OP(=O)([O-])Oc3ccc(C(=O)C(=Cc4ccc(N(CC)CC)cc4)c4ccc(C)cc4)c(OC)c3)cc2OC)c2ccc(C)cc2)cc1.[Na+] [sodium bis(4-(3-(4-diethylaminophenyl)-2-(4-methylphenyl)acryloyl)-3-methoxyphenyl) phosphate] | equal to or superior to that of PPP
12 | CCN(CC)c1ccc(CCC(=O)c2cc(C)c(OP(=O)([O-])Oc3c(C)cc(C(=O)CCc4ccc(N(CC)CC)cc4)cc3C)c(C)c2)cc1.[Na+] [sodium bis(4-(3-(4-diethylaminophenyl)propionyl)-2,6-dimethylphenyl) phosphate] | equal to or superior to that of PPP
13 | Nc1cccc(C(=O)CCc2ccc(OP(=O)(O)Oc3ccc(CCC(=O)c4cccc(N)c4)cc3)cc2)c1 [sodium bis(4-(3-aminophenyl)-3-oxypropyl)phenyl) phosphate] | equal to or superior to that of PPP

tested on: Slow Reacting Substance (SRS); assay: antagonism to Slow Reacting Substance on the isolated guinea-pig ileum (Mathe & Strandberg); type: cell-based; settings: not given
Description: The antagonism to Slow Reacting Substance (SRS) is determined on the isolated guinea-pig ileum as described by Mathe & Strandberg (Acta physiol. scand. 82:460, 1971). Purified SRS is obtained from cat paws perfused with compound 48/80 (Strandberg & Uvnas: Acta physiol. scand. 82:358, 1971). Sodium bis(4-(3-oxo-3-(2,4,6-trihydroxyphenyl)propyl)phenyl) phosphate was tested in this system in several concentrations.

Row | Compound | inhibition of SRS
14 | O=C(CCc1cccc(OP(=O)([O-])Oc2cccc(CCC(=O)c3ccccc3O)c2)c1)c1ccccc1O.[Na+] [sodium bis(3-(3-(2-hydroxyphenyl)-3-oxopropyl)phenyl) phosphate] | inhibit SRS
15 | COc1cc(CCC(=O)c2cccc(OP(=O)([O-])Oc3cccc(C(=O)CCc4ccc(O)c(OC)c4)c3)c2)ccc1O.[Na+] [sodium bis(3-(3-(4-hydroxy-3-methoxyphenyl)propionyl)phenyl) phosphate] | inhibit SRS
